Read-outs that look alike come from different tables or passages of the source.
Tested on: phospho-serine 2056 DNA-PK in HCT116 cells
Test: DNA-PK phosphorylation at serine 2056 (cellular), ELISA in bleomycin-treated HCT116 cells
Type: cell-based
Settings: read-out: IC50 pDNA-PK
In short: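 Chemiluminescent ELISA quantified DNA-PK Ser2056 phosphorylation relative to total DNA-PKcs in HCT116 cells. Cells received compounds together with 10 μM bleomycin for 6 h; DMSO served as blank.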

[1] = Homo sapiens, HCT-116, 6 h, cellular, HCT116 cells, 10 μM bleomycin, six hours
[2] = Homo sapiens, HCT-116, phospho-serine 2056 DNA-PK, bleomycin-treated HCT116 cells
[3] = cellular DNA-PK phosphorylation at serine 2056, HCT116 cells
[4] = Homo sapiens, HCT-116, phospho-serine 2056 DNA-PK, bleomycin-treated HCT116 cells, class symbols A-D
[5] = phospho-serine 2056 DNA-PK, bleomycin-treated HCT116 cells
[6] = Homo sapiens, HCT-116, cellular DNA-PK phosphorylation at serine 2056, HCT116 cells

Structure (SMILES): NCCn1nc(C(O)c2cc(-c3ncnc4cc(N5CCOCC5)ccc34)c(F)cc2Cl)ccc1=O (stereo not drawn) [Example 94, 2-(2-Amino-ethyl)-6-{[2-Chloro-4-fluoro-5-(7-morpholin-4-yl-quinazolin-4-yl)phenyl]-hydroxy-methyl}-2H-pyridazin-3-one]
- IC50 [1]: 10 to 30 µM

Structure (SMILES): OC(c1ccc(F)c(-c2ncnc3cc(N4CCOCC4)ccc23)c1)c1nncc2ccoc12 (stereo not drawn) [Example 335, [4-Fluoro-3-(7-morpholin-4-yl-quinazolin-4-yl)-phenyl]furo[2,3-d}-pyridazin-7-yl-methanol]
- IC50 [2]: < 0.5 µM

Structure (SMILES): Cc1nccnc1C(C(N)=O)c1cc(-c2ncnc3cc(N4CCOCC4)ccc23)c(F)cc1Cl (stereo not drawn) [Example 324, 2-[2-Chloro-4-fluoro-5-(7-morpholin-4-yl-quinazolin-4-yl)-phenyl]-2-(3-methyl-pyrazin-2-yl)-acetamide]
- IC50 [2]: 0.5 to 5 µM

Structure (SMILES): OC(c1ccc(F)c(-c2ncnc3cc(N4CCOCC4)ccc23)c1)c1ncnc2occc12 (stereo not drawn) [Example 434, [4-Fluoro-3-(7-morpholin-4-yl-quinazolin-4-yl)-phenyl]furo[2,3-d}-pyrimidin-4-yl-methanol]
- IC50 [3]: < 0.5 µM

Structure (SMILES): C#CC(O)(c1ccc(OC)nn1)c1cc(-c2ncnc3cc(N4CCOCC4)ccc23)c(F)cc1Cl (stereo not drawn) [Example 122, 1-[2-Chloro-4-fluoro-5-(7-morpholin-4-yl-quinazolin-4-yl)-phenyl]-1-(6-methoxy-pyridazin-3-yl)-prop-2-yn-1-ol]
- IC50 [4]: 0.5 to 5 µM

Structure (SMILES): Cc1nccnc1[C@@H](O)c1ccc(F)c(-c2ncnc3cc(N4CCOCC4)ccc23)c1 [Example 82, (S)-[4-Fluoro-3-(7-morpholin-4-yl-quinazolin-4-yl)-phenyl]-(3-methyl-pyrazin-2-yl)methanol]
- IC50 [1]: 0.5 to 5 µM

Structure (SMILES): N#CCOc1ccc(C(O)c2cc(-c3ncnc4cc(N5CCOCC5)ccc34)c(F)cc2Cl)nn1 (stereo not drawn) [Example 119, (6-{[2-Chloro-4-fluoro-5-(7-morpholin-4-yl-quinazolin-4-yl)-phenyl]hydroxy-methyl}pyridazin-3-yl-oxy)acetonitrile]
- IC50 [4]: < 0.5 µM

Structure (SMILES): Cc1cc(C(C(N)=O)c2cc(-c3ncnc4cc(N5CCOCC5)ccc34)c(F)cc2Cl)n(C)c(=O)c1 (stereo not drawn) [Example 334, 2-[2-Chloro-4-fluoro-5-(7-morpholin-4-yl-quinazolin-4-yl)-phenyl]-2-(1,4-dimethyl-6-oxo-1,6-dihydropyridin-2-yl)-acetamide]
- IC50 [2]: 10 to 30 µM

Structure (SMILES): OC(c1cccnn1)c1cc(-c2ncnc3cc(N4CCOCC4)ccc23)c(F)cc1Cl (stereo not drawn) [Example 30, [2-Chloro-4-fluoro-5-(7-morpholin-4-yl-quinazolin-4-yl)phenyl]-pyridazin-3-ylmethanol]
- IC50 (cellular, HCT116 cells, 10 μM bleomycin, six hours): < 0.5 µM

Structure (SMILES): [2H]C1([2H])OC([2H])([2H])C([2H])([2H])N(c2ccc3c(-c4cc(C(O)c5nccnc5C)ccc4F)ncnc3c2)C1([2H])[2H] (stereo not drawn) [Example 238, [4-Fluoro-3-[7-(2,2,3,3,5,5,6,6-octadeuterio-morpholin-4-yl)quinazolin-4-yl]phenyl]-(3-methyl-pyrazin-2-yl)-methanol]
- IC50 [2]: < 0.5 µM

Structure (SMILES): Cc1csc(C(O)c2cc(-c3ncnc4cc(N5CCOCC5)ccc34)c(F)cc2Cl)n1 (stereo not drawn) [Example 181, [2-Chloro-4-fluoro-5-(7-morpholin-4-yl-quinazolin-4-yl)-phenyl]-(4-methyl-thiazol-2-yl)-methanol]
- IC50 [4]: 0.5 to 5 µM

Structure (SMILES): CC(C)(C)Oc1nccnc1C(O)c1ccc(F)c(-c2ncnc3cc(N4CCOCC4)ccc23)c1 (stereo not drawn) [Example 13, (3-tert-Butoxy-pyrazin-2-yl)-[4-fluoro-3-(7-morpholin-4-yl-quinazolin-4-yl)phenyl]-methanol]
- IC50 [1]: 10 to 30 µM

Structure (SMILES): OC(c1ccc(F)c(-c2ncnc3cc(N4CCOCC4)ccc23)c1)c1ncnn2cccc12 (stereo not drawn) [Example 345, [4-Fluoro-3-(7-morpholin-4-yl-quinazolin-4-yl)-phenyl]pyrrolo[2,1-f]-[1,2,4]triazin-4-yl-methanol]
- IC50 [2]: < 0.5 µM

Structure (SMILES): COc1nccnc1C(O)c1cc(-c2ncnc3cc(N4CCOCC4)ccc23)c(F)cc1F (stereo not drawn) [Example 467, [2,4-Difluoro-5-(7-morpholin-4-yl-quinazolin-4-yl)-phenyl]-(3-methoxy-pyrazin-2-yl)-methanol]
- IC50 [3]: < 0.5 µM

Structure (SMILES): Fc1ccc(C(OC(F)F)c2nccs2)cc1-c1ncnc2cc(N3CCOCC3)ccc12 (stereo not drawn) [Example 199, 4-[5-(Difluoro-methoxy-thiazol-2-ylmethyl)-2-fluoro-phenyl]-7-morpholin-4-yl-quinazoline]
- IC50 [4]: 10 to 30 µM

Structure (SMILES): NC(=O)C(c1ccc(F)c(-c2ncnc3cc(N4CCOCC4)ccc23)c1)c1nncc2sccc12 (stereo not drawn) [Example 285, 2-[4-Fluoro-3-(7-morpholin-4-yl-quinazolin-4-yl)-phenyl]-2-thieno-[2,3-d}pyridazin-4-yl-acetamide]
- IC50 [2]: 10 to 30 µM

Structure (SMILES): OC(c1ccc(F)c(-c2ncnc3cc(N4CCOCC4)ccc23)c1)c1nnc2ccccn12 (stereo not drawn) [Example 343, [4-Fluoro-3-(7-morpholin-4-yl-quinazolin-4-yl)-phenyl]-[1,2,4]-triazolo[4,3-a]pyridin-3-ylmethanol (Ena 2)]
- IC50 [5]: 0.5 to 5 µM

Structure (SMILES): COc1nnc(C(O)c2cc(-c3ncnc4cc(N5CCOCC5)ccc34)c(F)cc2Cl)c2ccncc12 (stereo not drawn) [Example 40, [2-Chloro-4-fluoro-5-(7-morpholin-4-yl-quinazolin-4-yl)phenyl]-(4-methoxypyrido-[3,4-d}pyridazin-1-yl)-methanol]
- IC50 [1]: 0.5 to 5 µM

Structure (SMILES): OC(c1cc(-c2ncnc3cc(N4CCOCC4)ccc23)ccc1Cl)c1ncnc2ccoc12 (stereo not drawn) [Example 415, [2-Chloro-5-(7-morpholin-4-yl-quinazolin-4-yl)-phenyl]furo[3,2-d}-pyrimidin-4-yl-methanol (Ena 1)]
- IC50 [3]: < 0.5 µM

Structure (SMILES): CNC(=O)C(c1cc(-c2ncnc3cc(N4CCOCC4)ccc23)c(F)cc1Cl)c1nccnc1OC (stereo not drawn) [Example 229, 2-[2-Chloro-4-fluoro-5-(7-morpholin-4-yl-quinazolin-4-yl)-phenyl]-2-(3-methoxypyrazin-2-yl)-N-methyl-acetamide]
- IC50 [2]: 0.5 to 5 µM

Structure (SMILES): OC(c1cc(F)c(F)c(-c2ncnc3cc(N4CCOCC4)ccc23)c1)c1nccs1 (stereo not drawn) [Example 179, [3,4-Difluoro-5-(7-morpholin-4-yl-quinazolin-4-yl)-phenyl]thiazol-2-yl-methanol]
- IC50 (phospho-serine 2056 DNA-PK, bleomycin-treated HCT116 cells, class symbols A-D): 0.5 to 5 µM

Structure (SMILES): NC(=O)C(c1cccnn1)c1cc(-c2ncnc3cc(N4CCOCC4)ccc23)c(F)cc1Cl (stereo not drawn) [Example 300, 2-[2-Chloro-4-fluoro-5-(7-morpholin-4-yl-quinazolin-4-yl)-phenyl]-2-pyridazin-3-ylacetamide]
- IC50 [2]: 10 to 30 µM

Structure (SMILES): OC(c1cc(-c2ncnc3cc(N4CCOCC4)ccc23)c(F)cc1F)c1ncnc2ccoc12 (stereo not drawn) [Example 444, [2,4-Difluoro-5-(7-morpholin-4-yl-quinazolin-4-yl)-phenyl]furo[3,2-d}-pyrimidin-4-yl-methanol]
- IC50 [6]: 0.5 to 5 µM

Structure (SMILES): OC(c1ccc(F)c(-c2ncnc3cc(N4CCOCC4)ccc23)c1)c1nccnc1I (stereo not drawn) [Example 462, [4-Fluoro-3-(7-morpholin-4-yl-quinazolin-4-yl)-phenyl]-(3-iodo-pyrazin-2-yl)-methanol]
- IC50 [3]: < 0.5 µM

Structure (SMILES): CCOc1cccnc1C(O)c1ccc(F)c(-c2ncnc3cc(N4CCOCC4)ccc23)c1 (stereo not drawn) [Example 463, (3-Ethoxy-pyridin-2-yl)-[4-fluoro-3-(7-morpholin-4-yl-quinazolin-4-yl)-phenyl]methanol]
- IC50 [6]: < 0.5 µM

Structure (SMILES): OC(c1cc(-c2ncnc3cc(N4CCOCC4)ccc23)c(F)cc1Cl)c1nccnc1Cl (stereo not drawn) [Example 64, [2-Chloro-4-fluoro-5-(7-morpholin-4-yl-quinazolin-4-yl)phenyl]-(3-chloropyrazin-2-yl)-methanol]
- IC50 [1]: < 0.5 µM

Structure (SMILES): Cc1nccnc1[C@H](O)c1ccc(F)c(-c2ncnc3cc(N4CCOCC4)cc(F)c23)c1 [Example 248, (R)-[4-Fluoro-3-(5-fluoro-7-morpholin-4-ylquinazolin-4-yl)-phenyl]-(3-methyl-pyrazin-2-yl)-methanol]
- IC50 [2]: < 0.5 µM

Structure (SMILES): OC(c1ccc(F)c(-c2ncnc3cc(N4CCOCC4)ccc23)c1)c1nccn2cnnc12 (stereo not drawn) [Example 351, [4-Fluoro-3-(7-morpholin-4-yl-quinazolin-4-yl)-phenyl]-[1,2,4]-triazolo[4,3-a]-pyrazin-8-ylmethanol]
- IC50 [2]: 10 to 30 µM

Structure (SMILES): CN(C)C(=O)c1ccc(C(O)c2cc(-c3ncnc4cc(N5CCOCC5)ccc34)c(F)cc2Cl)nn1 (stereo not drawn) [Example 50, 6-{[2-Chloro-4-fluoro-5-(7-morpholin-4-yl-quinazolin-4-yl)phenyl]-hydroxymethyl}-pyridazine-3-carboxylic acid dimethylamide]
- IC50 [1]: 10 to 30 µM

Structure (SMILES): OC(c1cc(-c2ncnc3cc(N4CCOCC4)ccc23)c(F)cc1Cl)c1nccn2ccnc12 (stereo not drawn) [Example 397, [2-Chloro-4-fluoro-5-(7-morpholin-4-yl-quinazolin-4-yl)-phenyl]imidazo-[1,2-a]pyrazin-8-yl-methanol]
- IC50 [3]: < 0.5 µM

Structure (SMILES): COc1ccc(C(O)c2ccc(F)c(-c3ncnc4cc(N5CCOCC5)cc(F)c34)c2)nn1 (stereo not drawn) [Example 260, [4-Fluoro-3-(5-fluoro-7-morpholin-4-yl-quinazolin-4-yl)-phenyl]-(6-methoxy-pyridazin-3-yl)-methanol]
- IC50 [5]: < 0.5 µM

Structure (SMILES): COc1cncnc1C(O)c1cc(-c2ncnc3cc(N4CCOCC4)ccc23)ccc1Cl (stereo not drawn) [Example 413, [2-Chloro-5-(7-morpholin-4-yl-quinazolin-4-yl)-phenyl]-(5-methoxy-pyrimidin-4-yl)-methanol]
- IC50 [3]: 0.5 to 5 µM

Structure (SMILES): OCc1csc([C@@H](O)c2cc(-c3ncnc4cc(N5CCOCC5)ccc34)c(F)cc2Cl)n1 [Example 185, (S)-[2-Chloro-4-fluoro-5-(7-morpholin-4-yl-quinazolin-4-yl)-phenyl]-(4-hydroxymethyl-thiazol-2-yl)-methanol]
- IC50 [4]: 0.5 to 5 µM

— patent US11065253B2, “Arylquinazolines” (Merck Patent GmbH, priority 2013, dated 2021)
